Experimental data: the NIST ThermoML archive (doi:10.1016/j.jct.2012.07.007)
Numbers after ± are expanded uncertainties.

How the values were obtained:
[1] = excess molar enthalpy (molar enthalpy of mixing); xn = mol fraction of the nth substance listed; settings: 298.15 K, 101 kPa, Liquid, 2-drop calorimetry
[2] = xn = mol fraction of the nth substance listed; settings: 101 kPa, Liquid; for speed of sound: Linear variable-path acoustic interferometer; for mass density: Vibrating tube method

Cc1cccnc1 [3-methylpyridine] + CCn1cc[n+](C)c1.F[B-](F)(F)F
[1]
Settings | excess molar enthalpy [kcal/mol]
x2 = 0.1256 | -0.0325 ± 0.000765
x2 = 0.1676 | -0.0409 ± 0.000932
x2 = 0.2089 | -0.0491 ± 0.0011
x2 = 0.2578 | -0.0586 ± 0.00131
x2 = 0.2976 | -0.0651 ± 0.00146
x2 = 0.3387 | -0.0702 ± 0.00155
x2 = 0.3898 | -0.0766 ± 0.0017
x2 = 0.4367 | -0.0814 ± 0.00179
x2 = 0.4876 | -0.0864 ± 0.00189
x2 = 0.5223 | -0.0882 ± 0.00194
x2 = 0.599 | -0.0898 ± 0.00196
x2 = 0.6345 | -0.089 ± 0.00196
x2 = 0.689 | -0.0861 ± 0.00189
x2 = 0.7356 | -0.081 ± 0.00179
x2 = 0.7909 | -0.0713 ± 0.00158
x2 = 0.8479 | -0.0582 ± 0.00131
x2 = 0.889 | -0.047 ± 0.00108
x2 = 0.9109 | -0.0393 ± 0.000908

[2]
Settings | mass density, 293.15 K [kg/m3] | mass density, 298.15 K [kg/m3] | mass density, 303.15 K [kg/m3] | mass density, 308.15 K [kg/m3] | speed of sound, 293.15 K [m/s] | speed of sound, 298.15 K [m/s] | speed of sound, 303.15 K [m/s] | speed of sound, 308.15 K [m/s]
x2 = 0.1217 | 1024.56 ± 0.32 | 1020.46 ± 0.32 | 1016.63 ± 0.31 | 1011.73 ± 0.31 | 1479.9 ± 1.9 | 1465 ± 1.9 | 1443.4 ± 1.9 | 1427 ± 1.9
x2 = 0.1729 | 1050.57 ± 0.37 | 1046.54 ± 0.36 | 1042.83 ± 0.36 | 1038.13 ± 0.35 | 1494.7 ± 1.9 | 1480.8 ± 1.9 | 1459.7 ± 1.9 | 1443.9 ± 1.9
x2 = 0.2415 | 1082.96 ± 0.43 | 1079.02 ± 0.43 | 1075.3 ± 0.42 | 1070.72 ± 0.42 | 1514 ± 2 | 1499.7 ± 2 | 1481.3 ± 2 | 1465.7 ± 2
x2 = 0.2711 | 1096.07 ± 0.46 | 1092.1 ± 0.46 | 1088.37 ± 0.45 | 1084.01 ± 0.45 | 1521.8 ± 2 | 1507.9 ± 2 | 1490.3 ± 2 | 1474.6 ± 2
x2 = 0.3214 | 1117.16 ± 0.52 | 1113.25 ± 0.51 | 1109.49 ± 0.51 | 1105.3 ± 0.5 | 1535.6 ± 2.1 | 1520.5 ± 2 | 1504.5 ± 2 | 1488.8 ± 2
x2 = 0.3732 | 1137.38 ± 0.58 | 1133.44 ± 0.57 | 1129.62 ± 0.57 | 1125.73 ± 0.56 | 1548.8 ± 2.1 | 1532.8 ± 2.1 | 1519.4 ± 2.1 | 1503.3 ± 2.1
x2 = 0.4219 | 1154.95 ± 0.63 | 1151.03 ± 0.63 | 1147.27 ± 0.62 | 1143.6 ± 0.62 | 1560.1 ± 2.1 | 1543.2 ± 2.1 | 1532.2 ± 2.1 | 1517 ± 2.1
x2 = 0.4718 | 1171.59 ± 0.69 | 1167.7 ± 0.69 | 1163.94 ± 0.68 | 1160.52 ± 0.68 | 1571.8 ± 2.2 | 1554.4 ± 2.2 | 1544.1 ± 2.2 | 1530 ± 2.2
x2 = 0.5209 | 1186.68 ± 0.76 | 1182.83 ± 0.75 | 1179.2 ± 0.75 | 1175.87 ± 0.74 | 1581.6 ± 2.2 | 1564 ± 2.2 | 1556 ± 2.2 | 1541.8 ± 2.2
x2 = 0.5723 | 1201.17 ± 0.82 | 1197.38 ± 0.82 | 1193.82 ± 0.81 | 1190.64 ± 0.81 | 1591.9 ± 2.3 | 1574.7 ± 2.2 | 1566.4 ± 2.2 | 1554.1 ± 2.2
x2 = 0.6221 | 1214.02 ± 0.89 | 1210.25 ± 0.89 | 1206.88 ± 0.88 | 1203.74 ± 0.88 | 1600.3 ± 2.3 | 1583.7 ± 2.3 | 1576.1 ± 2.3 | 1565.4 ± 2.3
x2 = 0.6731 | 1226.02 ± 0.96 | 1222.36 ± 0.96 | 1219.18 ± 0.95 | 1215.94 ± 0.95 | 1607.5 ± 2.3 | 1593 ± 2.3 | 1585.5 ± 2.3 | 1576.2 ± 2.3
x2 = 0.7212 | 1236.43 ± 1 | 1232.83 ± 1 | 1229.78 ± 1 | 1226.48 ± 1 | 1614.1 ± 2.4 | 1601.4 ± 2.4 | 1592.8 ± 2.4 | 1585.3 ± 2.4
x2 = 0.7708 | 1246.34 ± 1.1 | 1242.76 ± 1.1 | 1239.81 ± 1.1 | 1236.4 ± 1.1 | 1619.1 ± 2.4 | 1608.8 ± 2.4 | 1598.7 ± 2.4 | 1593.7 ± 2.4
x2 = 0.8224 | 1255.77 ± 1.2 | 1252.24 ± 1.2 | 1249.34 ± 1.2 | 1245.81 ± 1.2 | 1623.7 ± 2.5 | 1614.9 ± 2.5 | 1604.2 ± 2.5 | 1599.5 ± 2.4
x2 = 0.8713 | 1264.1 ± 1.3 | 1260.53 ± 1.2 | 1257.58 ± 1.2 | 1253.89 ± 1.2 | 1627.2 ± 2.5 | 1619.3 ± 2.5 | 1607.5 ± 2.5 | 1603 ± 2.5
x2 = 0.9119 | 1270.62 ± 1.3 | 1266.99 ± 1.3 | 1263.93 ± 1.3 | 1260.07 ± 1.3 | 1629 ± 2.5 | 1621.6 ± 2.5 | 1609 ± 2.5 | 1603.9 ± 2.5
x2 = 0.9317 | 1273.7 ± 1.4 | 1270 ± 1.4 | 1266.86 ± 1.3 | 1262.91 ± 1.3 | 1629.8 ± 2.5 | 1621.8 ± 2.5 | 1609.2 ± 2.5 | 1603.2 ± 2.5
